Test results: patent US11377496B2, “Targeting agent antibody conjugates and uses thereof” (The Scripps Research Institute, priority 2013, dated 2022)
Where “and” joins values, the source holds several entries; their conditions need not be identical. Equal values may be shown once. Read-outs that look alike come from different tables or passages of the source. Where a SMILES comes first, the peptide text is derived from it.

Key:
mPSMA = mPSMA (Mus musculus, UniProt O35409); conditions: cited from earlier work
cynoPSMA = conditions: previous reports; cited from earlier work
rhPSMA = target: T1, rhPSMA (Homo sapiens, UniProt Q04609); experiment: PSMA inhibition assay; format: biochemical; conditions: for Relative Fluorescence Units: glutamic acid readout, Amplex Red; for RFU: KM measurement
T1 construct: purchased R&D research
Description: A 10 mM solution of N-acetyl-aspartyl-glutamate (NAAG) in 40 mM NaOH was diluted to 40 μM in Reaction Buffer (0.1 M Tris-HCl, pH=7.5), and the solution was added to a 384 well plate (10 μL per well). For KM measurements and KM negative controls (absence of PSMA), the NAAG solution was serially diluted 2-fold to obtain final NAAG concentrations ranging […]. […] To initiate reactions, 10 μL of rhPSMA ([…] in Reaction Buffer, R&D research) was added to each well. Reaction Buffer (10 μL) was added to the KM control series. The plate was incubated at 37° C. for 30 min, and then heated to 95° C. for 3 min. Levels of glutamic acid were quantified using Amplex® Red Glutamic Acid/Glutamate Oxidase Assay Kit (Invitrogen). Fluorescence intensities were measured using a SpectraMax Gemini EM microplate reader (GMI) with excitation and emission filters of 545 and 590 nm, respectively. Ki values were calculated using the Cheng-Prusoff equation from IC50 and KM values and these values were calculated using GraphPad Prism software. […] All reported data represent the mean of triplicate experiments.

[1] = Pharmacokinetics in rats, intravenous, sandwich-ELISA; format: in vivo, Sprague Dawley rats; conditions: rat, 0.5 mg/kg
Description: We first evaluated the pharmacokinetics of the P-targeting agent antibody conjugate. Male Sprague Dawley rats (Charles River) were injected intravenously at time zero at 1 and 5 mg/kg for P-targeting agent antibody conjugate or 0.5 mg/kg for the unconjugated UCHT1 Fab. Blood was collected at regular intervals to 32 hours and processed to measure drug concentrations using a sandwich-ELISA. […] Also, the small size of P-targeting agent antibody conjugate may be advantageous for penetrating solid tumors.

C4-2 cells = experiment: Prophylactic mouse xenograft model, C4-2 cells mixed with hPBMCs; format: in vivo, NOD/SCID mice; conditions: 2 mg/kg IV daily for 10 days from Day 4; monitored 6 weeks
Description: FIG. 12 depicts in vivo efficacy studies of P-targeting agent antibody conjugate. In the prophylactic model, 1×10^6 C4-2 cells were mixed with 2×10^6 PBMCs (1:2 ratio) in Matrigel and injected SC into the right shoulder of male NOD-SCID mice. P-targeting agent antibody conjugate, unconjugated Fab, or PBS (n=6) were administered at 2 mg/kg everyday for 10 days by IV starting on Day 4. Tumors were monitored by external caliper measurements for regular intervals for 6 weeks.
We next established a mouse xenograft model to evaluate the in vivo efficacy of P-targeting agent antibody conjugate. Immunodeficient NOD/SCID mice were subcutaneously injected with a mixture of 1×10^6 C4-2 cells and 2×10^6 hPBMCs in matrigel (BD Bioscience). After 4 days, treatment was initiated by injecting 2 mg/kg of drug via the tail vein and continued for 10 days (n=6). In a control group, mice were injected with an unconjugated mixture of P-Phthal (3) and UCHT1 wild-type Fab, and another group of mice was injected with vehicle alone (n=6). Tumor growth was monitored by external caliper measurement. […] After confirming the prophylactic efficacy of P-targeting agent antibody conjugate, we carried a xenograft model in which we delayed treatment until we observed the formation of a palpable tumor. […]

C4-2 (PSMA+) cells = experiment: In vitro cytotoxicity assays, C4-2 cells with PBMCs, 24 and 48 hours (Example 5); format: cell-based, human
Description: Peripheral blood mononuclear cells (PBMCs) were purified from fresh healthy human donor blood by conventional Ficoll-Hypaque gradient centrifugation. Purified PBMCs were washed and incubated in flasks in RPMI media with 10% FBS for 1 hours to remove any adherent cells. C4-2 (PSMA+) cells (target cells) were dissociated with 0.05% tryspin/EDTA solution (HyClone) and washed with RPMI with 10% FBS. 1×10^4 target cells were mixed with PBMCs at 1:10 ratio in […], and incubated with different concentrations of conjugated and unconjugated Fabs ([…]) for 24 and 48 hours at 37° C. Cytotoxicity of each well was measured for LDH (lactate dehydrogenase) levels in supernatant using Cytotox-96 non-radioactive cytotoxicity assay kit (Promega). Lysis solution ([…], provided in the same kit) was added to wells with only target cells to get the maximum killing, and spontaneous killing was measured from wells with effector and target cells treated with vehicle ([…]). The absorbance at 490 nm was recorded using SpectraMax 250 plate reader (Molecular Devices Corp.). Percent cytotoxicity was calculated by: % Cytotoxicity=(Absorbanceexpt−Absorbancespontaneous average)/(Absorbancemax killing average−Absorbancespontaneous average)×100

CD3 = CD3 (Macaca fascicularis, UniProt Q95LI5); experiment: Cyno cross-reactivity of anti-CD3 antibody; format: binding, cynomolgus macaque
[2] = average of three trials, read-out: Average Ki
[3] = enzyme-based inhibition assay, read-out: average Ki

T1 sequence (Q04609 whole entry): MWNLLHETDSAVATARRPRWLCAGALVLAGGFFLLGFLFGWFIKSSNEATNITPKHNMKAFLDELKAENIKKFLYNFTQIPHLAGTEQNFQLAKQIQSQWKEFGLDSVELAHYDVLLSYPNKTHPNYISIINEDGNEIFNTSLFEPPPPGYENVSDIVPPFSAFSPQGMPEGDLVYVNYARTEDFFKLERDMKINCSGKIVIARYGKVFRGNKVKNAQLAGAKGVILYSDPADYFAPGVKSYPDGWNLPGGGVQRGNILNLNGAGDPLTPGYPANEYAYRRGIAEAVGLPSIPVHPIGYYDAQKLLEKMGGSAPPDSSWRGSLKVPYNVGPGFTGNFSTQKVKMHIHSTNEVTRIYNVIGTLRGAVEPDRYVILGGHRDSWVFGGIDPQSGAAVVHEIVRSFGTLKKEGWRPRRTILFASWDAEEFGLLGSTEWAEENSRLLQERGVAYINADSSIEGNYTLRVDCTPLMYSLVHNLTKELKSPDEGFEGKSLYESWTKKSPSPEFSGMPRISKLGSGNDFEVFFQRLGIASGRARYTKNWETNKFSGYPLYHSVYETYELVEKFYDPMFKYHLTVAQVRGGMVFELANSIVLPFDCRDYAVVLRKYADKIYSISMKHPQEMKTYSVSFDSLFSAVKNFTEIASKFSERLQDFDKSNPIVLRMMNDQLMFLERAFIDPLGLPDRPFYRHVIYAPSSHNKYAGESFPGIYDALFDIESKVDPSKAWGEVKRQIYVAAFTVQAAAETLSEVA
mPSMA, sequence (O35409 whole entry): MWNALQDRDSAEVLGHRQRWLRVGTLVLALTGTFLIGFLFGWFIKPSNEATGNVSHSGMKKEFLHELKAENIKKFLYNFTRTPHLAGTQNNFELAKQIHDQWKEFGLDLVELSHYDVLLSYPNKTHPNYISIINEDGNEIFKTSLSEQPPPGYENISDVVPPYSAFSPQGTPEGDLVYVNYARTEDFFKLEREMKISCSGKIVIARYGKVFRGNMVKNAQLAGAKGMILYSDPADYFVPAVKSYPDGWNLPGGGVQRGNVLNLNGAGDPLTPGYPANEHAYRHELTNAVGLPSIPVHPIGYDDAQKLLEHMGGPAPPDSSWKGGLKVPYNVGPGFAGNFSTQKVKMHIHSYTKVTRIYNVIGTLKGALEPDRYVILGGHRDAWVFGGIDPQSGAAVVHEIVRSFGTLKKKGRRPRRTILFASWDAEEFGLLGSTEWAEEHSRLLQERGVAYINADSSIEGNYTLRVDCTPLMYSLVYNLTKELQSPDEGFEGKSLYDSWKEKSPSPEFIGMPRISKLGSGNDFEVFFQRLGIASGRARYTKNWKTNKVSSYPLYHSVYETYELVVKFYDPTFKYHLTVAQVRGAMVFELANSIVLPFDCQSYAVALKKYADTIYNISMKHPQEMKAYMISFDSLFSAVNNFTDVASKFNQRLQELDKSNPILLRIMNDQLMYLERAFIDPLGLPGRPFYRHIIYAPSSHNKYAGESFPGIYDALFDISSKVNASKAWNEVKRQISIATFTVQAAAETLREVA
CD3, sequence (Q95LI5 22-198): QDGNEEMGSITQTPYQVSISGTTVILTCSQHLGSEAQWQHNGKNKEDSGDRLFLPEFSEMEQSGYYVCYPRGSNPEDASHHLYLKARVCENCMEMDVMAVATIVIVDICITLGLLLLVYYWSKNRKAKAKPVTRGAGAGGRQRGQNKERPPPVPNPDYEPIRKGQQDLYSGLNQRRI
CD3, sequence (Q95LI8 22-171 partner): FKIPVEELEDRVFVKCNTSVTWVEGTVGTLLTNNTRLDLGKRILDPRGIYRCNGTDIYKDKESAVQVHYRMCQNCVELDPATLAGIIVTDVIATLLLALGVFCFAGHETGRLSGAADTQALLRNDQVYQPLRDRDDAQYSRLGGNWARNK
CD3, sequence (Q95LI7 23-181 partner): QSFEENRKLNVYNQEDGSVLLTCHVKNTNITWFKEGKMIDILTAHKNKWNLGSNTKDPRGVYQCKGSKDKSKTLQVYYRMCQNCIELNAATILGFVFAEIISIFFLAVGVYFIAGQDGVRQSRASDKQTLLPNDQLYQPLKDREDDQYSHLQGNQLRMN

## O=C(O)CCC(NC(=O)NC(CCC(=O)O)C(=O)O)C(=O)O (stereo not drawn) [DUPA, 2-[3-(1,3-dicarboxypropy)ureidol]pentanedioic acid]
mPSMA
  binding to mPSMA (in words): strongly binds
cynoPSMA
  inhibition of glutamate carboxy peptidase activity of cynoPSMA (in words): efficiently inhibited

## NOCC(=O)NCCOCCOCCNC(=O)c1ccc(C(=O)NCCOCCOCCNC(=O)CCCCCCCNC(=O)CCC(NC(=O)NC(CCC(=O)O)C(=O)O)C(=O)O)cc1 (stereo not drawn) [P-Phthal]
rhPSMA; Trials 1-3
  IC50: 208 nM and 397 nM and 223 nM
rhPSMA; [2]
  Ki: 1.98 nM
rhPSMA; [3]
  Ki: 2 nM
rhPSMA; inhibitor 0.0000256 μM
  Relative Fluorescence Units: 1609
rhPSMA; inhibitor 0.000128 μM
  Relative Fluorescence Units: 1592.5445
rhPSMA; inhibitor 0.00064 μM
  Relative Fluorescence Units: 1633.913
rhPSMA; inhibitor 0.0032 μM
  Relative Fluorescence Units: 1542.606
rhPSMA; inhibitor 0.016 μM
  Relative Fluorescence Units: 1387.603
rhPSMA; inhibitor 0.08 μM
  Relative Fluorescence Units: 1274
rhPSMA; inhibitor 0.4 μM
  Relative Fluorescence Units: 1021
rhPSMA; inhibitor 2 μM
  Relative Fluorescence Units: 798.9
rhPSMA; inhibitor 10 μM
  Relative Fluorescence Units: 688.1815
rhPSMA; inhibitor 50 μM
  Relative Fluorescence Units: 581.035

## NOCC(=O)NCCOCCOCCOCCNC(=O)c1ccc(C(=O)NCCCCCCc2cn(CCCC[C@H](NC(=O)N[C@@H](CCC(=O)O)C(=O)O)C(=O)O)nn2)cc1 [P-TriA, (S)-2-(3-((S)-5-(4-(6-(4-(1-(aminooxy)-2-oxo-6,9,12-trioxa-3-azatetradecan-14-ylcarbamoyl)benzamido)hexyl)-1H-1,2,3-triazol-1-yl)-1-carboxypentyl)ureido)pentanedioic acid]
rhPSMA; Trials 1-3, Cheng-Prusoff equation from IC50 and KM, read-out: Ki
  Ki: 0.00613 nM and 0.0023 nM and 0.00591 nM
rhPSMA; [2]
  Ki: 0.00478 nM
rhPSMA; compared to P-Phthal
  enhanced affinity: more than 400 fold
rhPSMA; [3]
  Ki: 0.0048 nM
rhPSMA; inhibitor 0.0000256 μM
  Relative Fluorescence Units: 1619
rhPSMA; inhibitor 0.000128 μM
  Relative Fluorescence Units: 1499.6145
rhPSMA; inhibitor 0.00064 μM
  Relative Fluorescence Units: 1259
rhPSMA; inhibitor 0.0032 μM
  Relative Fluorescence Units: 950.487
rhPSMA; inhibitor 0.016 μM
  Relative Fluorescence Units: 817.1
rhPSMA; inhibitor 0.08 μM
  Relative Fluorescence Units: 664.949
rhPSMA; inhibitor 0.4 μM
  Relative Fluorescence Units: 586.721
rhPSMA; inhibitor 2 μM
  Relative Fluorescence Units: 562.9
rhPSMA; inhibitor 10 μM
  Relative Fluorescence Units: 599.969
rhPSMA; inhibitor 50 μM
  Relative Fluorescence Units: 559.8

## wt-UCHT1
[1]
  circulating half-life: ~1 h
C4-2 cells
  tumor growth (in words): developed rapid tumors
C4-2 (PSMA+) cells; 24 h, 0.0512 pM
  % Cytotoxicity: −0.1753%
C4-2 (PSMA+) cells; 24 h, 0.256 pM
  % Cytotoxicity: −0.8764%
C4-2 (PSMA+) cells; 24 h, 1.28 pM
  % Cytotoxicity: −0.9115%
C4-2 (PSMA+) cells; 24 h, 6.4 pM
  % Cytotoxicity: −0.4733%
C4-2 (PSMA+) cells; 24 h, 32 pM
  % Cytotoxicity: −0.7537%
C4-2 (PSMA+) cells; 24 h, 160 pM
  % Cytotoxicity: −0.4032%
C4-2 (PSMA+) cells; 24 h, 800 pM
  % Cytotoxicity: 1.192%
C4-2 (PSMA+) cells; 24 h, 4000 pM
  % Cytotoxicity: 1.858%
C4-2 (PSMA+) cells; 48 h, 0.01024 pM
  % Cytotoxicity: −0.609%
C4-2 (PSMA+) cells; 48 h, 0.0512 pM
  % Cytotoxicity: −1.023%
C4-2 (PSMA+) cells; 48 h, 0.256 pM
  % Cytotoxicity: −0.5196%
C4-2 (PSMA+) cells; 48 h, 1.28 pM
  % Cytotoxicity: −0.0812%
C4-2 (PSMA+) cells; 48 h, 6.4 pM
  % Cytotoxicity: −0.4872%
C4-2 (PSMA+) cells; 48 h, 32 pM
  % Cytotoxicity: −1.104%
C4-2 (PSMA+) cells; 48 h, 160 pM
  % Cytotoxicity: −0.9419%
C4-2 (PSMA+) cells; 48 h, 800 pM
  % Cytotoxicity: 4.872%
CD3
  cyno cross-reactivity (in words): not sufficiently cyno cross-reactive

## CC(=O)N[C@@H](CC(=O)O)C(=O)N[C@@H](CCC(=O)O)C(=O)O [NAAG, N-acetyl-aspartyl-glutamate, reference compound] (Ac-Asp-Glu-OH)
rhPSMA; NAAG 0.15625 μM
  RFU: 403
rhPSMA; NAAG 0.3125 μM
  RFU: 400.6455
rhPSMA; NAAG 0.625 μM
  RFU: 422.2
rhPSMA; NAAG 1.25 μM
  RFU: 434.8145
rhPSMA; NAAG 2.5 μM
  RFU: 447
rhPSMA; NAAG 5 μM
  RFU: 480.622
rhPSMA; NAAG 10 μM
  RFU: 549.6
rhPSMA; NAAG 20 μM
  RFU: 653.474
rhPSMA; substrate NAAG
  Km: 0.288 µM

## NOCC(=O)NCCOCCOCCNc1cc(NCCOCCOCCNC(=O)CCCCCCCNC(=O)CCC(NC(=O)NC(CCC(=O)O)C(=O)O)C(=O)O)c([N+](=O)[O-])cc1[N+](=O)[O-] (stereo not drawn) [P-DNP]
rhPSMA; Trials 1-3
  IC50: 7.28 nM and 4.46 nM and 4.58 nM
rhPSMA; [2]
  Ki: 0.0482 nM
rhPSMA; inhibitor 0.0000256 μM
  Relative Fluorescence Units: 1650.519
rhPSMA; inhibitor 0.000128 μM
  Relative Fluorescence Units: 1558
rhPSMA; inhibitor 0.00064 μM
  Relative Fluorescence Units: 1413.9875
rhPSMA; inhibitor 0.0032 μM
  Relative Fluorescence Units: 1123.0625
rhPSMA; inhibitor 0.016 μM
  Relative Fluorescence Units: 896.8
rhPSMA; inhibitor 0.08 μM
  Relative Fluorescence Units: 704.2
rhPSMA; inhibitor 0.4 μM
  Relative Fluorescence Units: 622.7
rhPSMA; inhibitor 2 μM
  Relative Fluorescence Units: 586.843
rhPSMA; inhibitor 10 μM
  Relative Fluorescence Units: 581.8
rhPSMA; inhibitor 50 μM
  Relative Fluorescence Units: 525.6755
